In PubChem BioAssay AID1996:
Converted amounts (≈) assume the structure as drawn.

conditions: buffer; pH 7.4; 200.0 µM

| SMILES | solubility kinetic |
| --- | --- |
| CC(=O)N1CCN(C(=O)c2oc3ccccc3c2C)CC1 | > 42.9 µg/mL |
| Cc1cnc(C(=O)Oc2c(C)ccc(C)c2C)cn1 | 38.2 µg/mL (≈ 149 µM) |
| O=C(CSCc1c(F)cccc1Cl)NCCc1ccccc1 | 40.2 µg/mL (≈ 119 µM) |
| CCOC(=O)Nc1ccc2c(c1)nc1n2CCN(CCOC)C1 | > 47.8 µg/mL |
| Cc1ccc([N+](=O)[O-])cc1NC(=O)C[n+]1ccccc1.[Cl-] | > 46.2 µg/mL |
| CCN(CC(=O)NC1CCS(=O)(=O)C1)S(=O)(=O)c1ccccc1Cl (stereo unspecified) | > 59.2 µg/mL |
| Cc1nnc(NC(=O)c2ccc(Br)o2)s1 | > 43.2 µg/mL |
| O=Cc1cccc(Oc2ncccn2)c1 | > 30 µg/mL |
| Cc1ccc(C(=O)NC(=S)N(C)C2CCCCC2)cc1 | 9.9 µg/mL (≈ 34.1 µM) |
| CC(Cl)C(=O)Nc1c2c(nn1-c1ccccc1)CSC2 (stereo unspecified) | > 46.2 µg/mL |
| O=c1[nH]c(=O)n(-c2ccc(Br)cc2)c(O)c1C=NCCN1CCCCC1 | 60.5 µg/mL (≈ 144 µM) |
| Cc1cc(C(=O)Nc2ccccc2N2CCOCC2)no1 | 19.2 µg/mL (≈ 66.8 µM) |
| CN(C(=O)CSc1nnc(C2CC2)n1C1CC1)C1(C#N)CCCCC1 | > 53.9 µg/mL |
| Cc1cc(OCCCC(=O)NCCc2ccccn2)ccc1Cl | > 49.9 µg/mL |
| c1ccc(-n2cccc2)c(N2CCCCC2)c1 | < 0.2 µg/mL |
| CNc1nc(Cl)nc(Nc2ccccc2)n1 | 2 µg/mL (≈ 8.49 µM) |
| O=C(NC1CCCCC1)C(=S)NCc1ccccc1 | 1.4 µg/mL (≈ 5.07 µM) |
| CC(=O)OCC(=O)Nc1ccccc1OC(F)F | > 38.9 µg/mL |
| Cn1ccnc1C(O)(c1ccccc1)c1ccccc1 | 35.4 µg/mL (≈ 134 µM) |
| Cc1cc(C)c2c(=O)c(/C=C3\NC(=S)NC3=O)coc2c1 | 0.8 µg/mL (≈ 2.66 µM) |
| O=C(Cc1ccccc1)NC(Cc1ccc(Cl)cc1)C(=O)O (stereo unspecified) | > 47.7 µg/mL |
| Cc1ccc(NS(=O)(=O)c2ccc3c(c2)CCC(=O)N3)cc1 | > 47.5 µg/mL |

| SMILES | solubility kinetic |
| --- | --- |
| Cc1[nH]c2ccc(C(=O)NCCN3CCOCC3)cc2c1C | > 45.2 µg/mL |
| Cc1nc(SCc2ccccc2)c2ccsc2n1 | < 0.3 µg/mL |
| Cc1ccc(CS(=O)(=O)c2nc3c(c(N(C)C)n2)CCCC3)cc1 | 46 µg/mL (≈ 133 µM) |
| COc1ccccc1C(C#N)c1cccc(Cl)n1 (stereo unspecified) | 38 µg/mL (≈ 147 µM) |
| CC(C)c1cccc(OCCN2CCCC2)c1 | 22.9 µg/mL (≈ 98.1 µM) |
| Cc1ccsc1C(=O)Nc1ccccc1N1CCCC1 | 27.6 µg/mL (≈ 96.4 µM) |
| COc1ccc(N=C2NC(=O)/C(=C/c3ccco3)S2)cc1 | 1.6 µg/mL (≈ 5.33 µM) |
| O=C(O)COc1ccc(Br)cc1/C=N\Nc1ccccn1 | > 52.5 µg/mL |
| Cc1cccc(NC(=O)CCN2CCC(C(N)=O)CC2)c1 | 41.1 µg/mL (≈ 142 µM) |
| NS(=O)(=O)c1ccc(CCNC(=O)COC(=O)C2COc3ccccc3O2)cc1 (stereo unspecified) | > 63.1 µg/mL |
| CN1CCc2cccc3c2[C@@H]1Cc1ccc(O)c(O)c1-3.Cl | 12.5 µg/mL |
| c1cncc(-c2nc(NCC3CCCO3)c3ccccc3n2)c1 (stereo unspecified) | > 46 µg/mL |
| CN(C)C(=O)c1c2c(nc3ccccc13)CCCC2 | 32.2 µg/mL (≈ 127 µM) |
| O=C(Nc1ccc(F)cc1F)NC1CCN(Cc2c(F)cccc2Cl)CC1 | 5 µg/mL (≈ 12.6 µM) |
| COc1ccc(OCCn2c(N)nc3ccccc32)cc1 | > 42.5 µg/mL |
| O=C(CCC1CCCN(C(=O)c2ccco2)C1)NCc1ccccc1F (stereo unspecified) | > 53.8 µg/mL |
| O=C(COC(=O)c1cccs1)Nc1ccccc1Cl | 2.3 µg/mL (≈ 7.78 µM) |
| CCOc1ccc(S(=O)(=O)n2cnc(C)c2)cc1 | 38.5 µg/mL (≈ 145 µM) |
| COc1cc(CN2CCCN(C)CC2)c([N+](=O)[O-])cc1OC | 39 µg/mL (≈ 126 µM) |
| CC1(C)CC(NC(=O)c2cccc(F)c2)CC(C)(C)N1 | 40.8 µg/mL (≈ 147 µM) |
| CS(=O)(=O)N1CCC(C(=O)Nc2ccc(Cl)cc2)CC1 | 13.4 µg/mL (≈ 42.3 µM) |
| Cc1ccc2nc(C(F)C(F)(F)F)[nH]c2c1 (stereo unspecified) | > 34.8 µg/mL |

| SMILES | solubility kinetic |
| --- | --- |
| O=C(O)CN1CCN(Cc2ccc(F)cc2)C1=O | > 37.8 µg/mL |
| COc1cccc(N(C(C)=O)C2=NCCCS2)c1 | > 39.7 µg/mL |
| Nc1c(Br)c(=O)[nH]c(=O)n1-c1ccccc1 | > 42.3 µg/mL |
| O=C(O)c1ccc(CNC(=O)c2ccc3c(c2)OCCO3)cc1 | > 47 µg/mL |
| S=C1Nc2ccccc2Sc2ccccc21 | 1 µg/mL (≈ 4.11 µM) |
| Cc1cc(C)c2c(c1)C1(OCCO1)C(=O)N2 | 16.1 µg/mL (≈ 73.4 µM) |
| Cn1c(=O)c(C(=O)NCC2CCCO2)c(O)c2ccccc21 (stereo unspecified) | 15.2 µg/mL (≈ 50.3 µM) |
| O=C(/C=C/c1cccs1)c1ccc(N2CCOCC2)cc1 | 4.8 µg/mL (≈ 16 µM) |
| O=C(CSc1ncnc2sc3c(c12)CCCC3)NC1CCS(=O)(=O)C1 (stereo unspecified) | 18.6 µg/mL (≈ 46.8 µM) |
| Cn1ncc(C(=O)N=S(C)(=O)c2ccccc2)c1[N+](=O)[O-] (stereo unspecified) | > 46.2 µg/mL |
| Cc1cc(C(=O)NCCc2ccccc2)c2cc(F)ccc2n1 | 14.9 µg/mL (≈ 48.3 µM) |
| O=C(O)c1ccc(Cl)c(NCc2ccncc2)c1 | > 39.4 µg/mL |
| CC(C)(C)C(=O)C1=C(O)C(=O)N(Cc2ccccc2)C1c1ccccc1F (stereo unspecified) | > 55.1 µg/mL |
| CN(CC(=O)Nc1ccc(F)cc1)CC(=O)N1CCCC1 | 43 µg/mL (≈ 147 µM) |
| Cc1ccccc1N=CC1=C(O)c2ccccc2C1=O | < 0.6 µg/mL |
| N/C(=N/[N+](=O)[O-])N1CCN(C(=O)Oc2ccc([N+](=O)[O-])cc2)CC1 | > 50.7 µg/mL |
| O=C(NC(=S)Nc1ccc(F)c(Cl)c1)C1CC1 | 2.3 µg/mL (≈ 8.43 µM) |
| O=C(c1cc2cc([N+](=O)[O-])ccc2s1)N1CCOCC1 | 16.2 µg/mL (≈ 55.4 µM) |
| CC(C)C(OC(=O)c1nsc(Cl)c1Cl)C(=O)NCc1ccccc1 (stereo unspecified) | 10 µg/mL (≈ 25.8 µM) |
| CON(C)S(=O)(=O)c1cccc(C(=O)N(CC(=O)Nc2ccccc2C(F)(F)F)Cc2ccco2)c1 | 50.2 µg/mL (≈ 95.5 µM) |
| COC(=O)c1ccc(-c2noc(CN(C)CC3CCCCO3)n2)cc1 (stereo unspecified) | > 51.8 µg/mL |
| NS(=O)(=O)c1cccc(NC(=O)CSc2nnc3n2CCCCC3)c1 | > 57.2 µg/mL |

| SMILES | solubility kinetic |
| --- | --- |
| O=Cc1ccc(-n2cc(C=O)c3ccccc32)cc1 | 2.4 µg/mL (≈ 9.63 µM) |
| CC(=O)Nc1ccc(S(=O)(=O)NCCN2CCNC2=O)cc1Cl | > 54.1 µg/mL |
| Fc1ccccc1-c1csc(-c2cccnc2)n1 | 0.4 µg/mL (≈ 1.56 µM) |
| O=S(=O)(CCNCc1cccs1)c1ccc(Cl)cc1 | 32.5 µg/mL (≈ 103 µM) |
| Cc1cc(C)c(NC(=O)CCCSc2nnc(N)s2)c(C)c1 | > 50.5 µg/mL |
| Cc1cc(C(=O)O)ccc1-n1c(C)cc(/C=C2\SC(=O)NC2=O)c1C | > 53.5 µg/mL |
| CN(Cc1ccccc1)C(=O)COC(=O)c1cc(=O)[nH]c2ccccc12 | 34.4 µg/mL (≈ 98.2 µM) |
| O=C(CCSc1nc2ccccc2o1)Nc1ccccc1 | 4.2 µg/mL (≈ 14.1 µM) |
| Cc1ccsc1/C=N/NC(=O)C1CC(=O)N(c2ccc(F)cc2)C1 (stereo unspecified) | > 51.8 µg/mL |
| S=C(Nc1ccccc1Cl)N1CCC(c2ccccc2)C1 (stereo unspecified) | 17.9 µg/mL (≈ 56.5 µM) |
| O=S(=O)(NCc1csc(-c2cccs2)n1)c1cccs1 | 49 µg/mL (≈ 143 µM) |
| COc1ccc(CN2CCN(C(=O)CC(C)C)CC2)cc1 | 36.8 µg/mL (≈ 127 µM) |
| N#Cc1c(SCC(N)=O)nc2c(c1-c1ccncc1)CCCC2 | > 48.7 µg/mL |
| Cc1cc(OCc2cccc(Cl)c2)c(C)cc1CN1CCOCC1 | 1 µg/mL (≈ 2.89 µM) |
| O=C(COC(=O)C12CC3CC(CC(C3)C1)C2)Nc1nccs1 | < 0.3 µg/mL |
| NC(=O)C1CCN(CC(=O)Nc2ccccc2N2CCOCC2)CC1 | > 52 µg/mL |
| O=C(CC1OC(=O)c2ccccc21)Nc1cc(Cl)ccc1N1CCOCC1 (stereo unspecified) | 5.8 µg/mL (≈ 15 µM) |
| CCCc1nc2cc(Cl)c([N+](=O)[O-])cc2o1 | 5 µg/mL (≈ 20.8 µM) |
| COC(=O)Cc1ccc2oc(-c3cccnc3)nc2c1 | 37 µg/mL (≈ 138 µM) |
| CC(=O)NC(CC(=O)OCC(=O)Nc1cc(S(=O)(=O)N2CCCCC2)ccc1C)c1ccccc1 (stereo unspecified) | > 75.2 µg/mL |
